Source: US20120064121A1, “PYRIDINE COMPOUNDS FOR INFLAMMATION AND IMMUNE-RELATED USES” (SYNTA PHARMACEUTICALS CORP., priority 2008, published 2012)
Structures can show the parent of a compound that is named as a salt.

Test system: IL-2 production
Assay: Inhibition of IL-2 production in PHA-activated Jurkat cells (ELISA)
Type: cell-based
Conditions: PHA 2.5 μg/mL, IL-2 ELISA
Experimental: Jurkat cells were placed in a 96 well plate (0.5 million cells per well in 1% FBS medium) then a test compound of this invention was added at different concentrations. After 10 minutes, the cells were activated with PHA (final concentration 2.5 μg/mL) and incubated for 20 hours at 37° C. under CO2. The final volume was 200 μL. Following incubation, the cells were centrifuged and the supernatants collected and stored at −70° C. prior to assaying for IL-2 production. A commercial ELISA kit (IL-2 Eli-pair, Diaclone Research, Besancon, France) was used to detect production of IL-2, from which dose response curves were obtained. The IC50 value was calculated as the concentration at which 50% of maximum IL-2 production after stimulation was inhibited versus a non-stimulation control.

Row | Compound | IC50 (Homo sapiens, Jurkat, 20 h) | also measured
1 | O=C(Nc1ccc(-c2cc(-c3nccs3)ccc2Cl)cn1)c1c(F)cccc1C(F)(F)F [Compound 13, N-(5-(2-chloro-5-(thiazol-2-yl)phenyl)pyridin-2-yl)-2-fluoro-6-(trifluoromethyl)benzamide] | 66 nM | –
2 | Fc1cccc(F)c1CNc1ccc(-c2cc(-c3nccs3)ccc2Cl)cn1 [Compound 1, 5-(2-chloro-5-(thiazol-2-yl)phenyl)-N-(2,6-difluorobenzyl)pyridin-2-amine] | – | IC50 (20 hours): 56 nM
3 | O=C(Nc1ccc(-c2cc(-c3nccs3)ccc2Cl)nc1)c1ccccc1C(F)(F)F [Compound 14, N-(6-(2-chloro-5-(thiazol-2-yl)phenyl)pyridin-3-yl)-2-(trifluoromethyl)benzamide] | 71 nM | –
4 | Cc1cc[nH]c1C(=O)Nc1ccc(-c2cc(-c3nccs3)ccc2Cl)cn1 [Compound 15, N-(5-(2-chloro-5-(thiazol-2-yl)phenyl)pyridin-2-yl)-3-methyl-1H-pyrrole-2-carboxamide] | 348 nM | –
5 | Cc1ccc(-c2cccnc2)cc1-c1ccc(NC(=O)c2c(F)cccc2Cl)nc1 [Compound 10, 2-chloro-6-fluoro-N-(5-(2-methyl-5-(pyridin-3-yl)phenyl)pyridin-2-yl)benzamide hydrochloride] | – | IC50 (20 hours, hydrochloride): 7 nM
6 | Cc1ccc(-c2cccnc2)cc1-c1ccc(NC(=O)c2c(F)cccc2F)nc1 [Compound 6, 2,6-difluoro-N-(5-(2-methyl-5-(pyridin-3-yl)phenyl)pyridin-2-yl)benzamide] | 3 nM | –
7 | Cc1ccc(-c2ncccn2)cc1-c1ccc(NC(=O)c2c(F)cccc2F)nc1 [Compound 7, 2,6-difluoro-N-(5-(2-methyl-5-(pyrimidin-2-yl)phenyl)pyridin-2-yl)benzamide] | 12 nM | –
8 | Cn1cncc1C(=O)Nc1ccc(-c2cc(-c3nccs3)ccc2Cl)cn1 [Compound 16, N-(5-(2-chloro-5-(thiazol-2-yl)phenyl)pyridin-2-yl)-1-methyl-1H-imidazole-5-carboxamide] | 91 nM | –
9 | Fc1cccc(F)c1CNc1ccc(-c2cc(-c3nccs3)ccc2Cl)cn1 [Compound 2, 5-(2-chloro-5-(thiazol-2-yl)phenyl)-N-(2,6-difluorobenzyl)pyridin-2-amine hydrochloride] | – | IC50 (20 hours, hydrochloride): 21 nM
10 | O=C(Nc1ccc(-c2cc(-c3nccs3)ccc2Cl)cn1)c1ccncc1F [Compound 8, N-(5-(2-chloro-5-(thiazol-2-yl)phenyl)pyridin-2-yl)-3-fluoroisonicotinamide] | 11 nM | –
11 | O=C(Nc1ccc(-c2cc(-c3nccs3)ccc2Cl)cn1)c1c(F)cccc1Cl [Compound 12, 2-chloro-N-(5-(2-chloro-5-(thiazol-2-yl)phenyl)pyridin-2-yl)-6-fluorobenzamide] | 10 nM | –
12 | Cc1ncsc1C(=O)Nc1ccc(-c2cc(-c3nccs3)ccc2Cl)cn1 [Compound 17, N-(5-(2-chloro-5-(thiazol-2-yl)phenyl)pyridin-2-yl)-4-methylthiazole-5-carboxamide] | 81 nM | –
13 | O=C(Nc1ccc(-c2cc(-c3nccs3)ccc2Cl)cn1)c1ccccc1F [Compound 11, N-(5-(2-chloro-5-(thiazol-2-yl)phenyl)pyridin-2-yl)-2-fluorobenzamide] | 13 nM | –
14 | O=C(Nc1ccc(-c2cc(-c3cccnc3)ccc2Cl)cn1)c1c(F)cccc1F [Compound 18, N-(5-(2-chloro-5-(pyridin-3-yl)phenyl)pyridin-2-yl)-2,6-difluorobenzamide] | 6 nM | –
15 | Fc1cccc(F)c1CNc1ccc(-c2cc(-c3nccs3)ccc2Cl)nc1 [Compound 4, 6-(2-chloro-5-(thiazol-2-yl)phenyl)-N-(2,6-difluorobenzyl)pyridin-3-amine] | 19 nM | –
16 | Cc1ccc(-c2cccnc2)cc1-c1ccc(NC(=O)c2c(F)cccc2Cl)nc1 [Compound 9, 2-chloro-6-fluoro-N-(5-(2-methyl-5-(pyridin-3-yl)phenyl)pyridin-2-yl)benzamide] | – | IC50 (20 hours): > 1000 nM
17 | Fc1cccc(F)c1CNc1ccc(-c2cc(-c3ncco3)ccc2Cl)cn1 [Compound 5, 5-(2-chloro-5-(oxazol-2-yl)phenyl)-N-(2,6-difluorobenzyl)pyridin-2-amine] | 17 nM | –
18 | Cc1ccc(-c2ccno2)cc1-c1ccc(NCc2c(F)cccc2F)cn1 [Compound 3, N-(2,6-difluorobenzyl)-6-(5-(isoxazol-5-yl)-2-methylphenyl)pyridin-3-amine] | 48 nM | –
